Reference: ChEMBL document CHEMBL3879901, “Substituted isoquinolin-1(2H)-ones, and methods of use thereof” (2012)

How the values were obtained:
[1] = molecular target: PI3-kinase p110-delta/p85-alpha (Homo sapiens, UniProt O00329); test: Inhibition of N-terminal His6-tagged recombinant full-length human p110delta/untagged recombinant full length p85alpha expressed in baculovirus infected Sf21 cells using phosphatidylinositol as substrate in presence of gamma-32P-ATP after 5 mins by thin layer chromatographic method
Chain of PI3-kinase p110-delta/p85-alpha (P27986 whole entry): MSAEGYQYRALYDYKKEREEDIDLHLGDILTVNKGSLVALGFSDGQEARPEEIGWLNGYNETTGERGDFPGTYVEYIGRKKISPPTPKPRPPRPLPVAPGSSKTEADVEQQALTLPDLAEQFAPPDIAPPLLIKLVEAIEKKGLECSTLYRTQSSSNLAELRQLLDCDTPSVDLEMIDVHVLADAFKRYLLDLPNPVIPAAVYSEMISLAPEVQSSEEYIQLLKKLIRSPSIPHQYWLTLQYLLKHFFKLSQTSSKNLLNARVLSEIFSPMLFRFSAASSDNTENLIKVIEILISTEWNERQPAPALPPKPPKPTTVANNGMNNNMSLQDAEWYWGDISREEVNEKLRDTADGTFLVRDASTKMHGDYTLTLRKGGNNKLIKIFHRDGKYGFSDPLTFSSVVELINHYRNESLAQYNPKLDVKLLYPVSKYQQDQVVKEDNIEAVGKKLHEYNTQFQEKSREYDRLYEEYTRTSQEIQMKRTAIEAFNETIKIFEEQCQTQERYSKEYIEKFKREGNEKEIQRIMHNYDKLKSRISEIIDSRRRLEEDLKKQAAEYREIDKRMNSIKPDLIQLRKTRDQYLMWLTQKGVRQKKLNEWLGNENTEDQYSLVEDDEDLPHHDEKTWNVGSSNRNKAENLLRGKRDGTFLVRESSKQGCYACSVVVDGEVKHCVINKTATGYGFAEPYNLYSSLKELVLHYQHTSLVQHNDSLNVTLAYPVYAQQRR
Chain of PI3-kinase p110-delta/p85-alpha (O00329 whole entry): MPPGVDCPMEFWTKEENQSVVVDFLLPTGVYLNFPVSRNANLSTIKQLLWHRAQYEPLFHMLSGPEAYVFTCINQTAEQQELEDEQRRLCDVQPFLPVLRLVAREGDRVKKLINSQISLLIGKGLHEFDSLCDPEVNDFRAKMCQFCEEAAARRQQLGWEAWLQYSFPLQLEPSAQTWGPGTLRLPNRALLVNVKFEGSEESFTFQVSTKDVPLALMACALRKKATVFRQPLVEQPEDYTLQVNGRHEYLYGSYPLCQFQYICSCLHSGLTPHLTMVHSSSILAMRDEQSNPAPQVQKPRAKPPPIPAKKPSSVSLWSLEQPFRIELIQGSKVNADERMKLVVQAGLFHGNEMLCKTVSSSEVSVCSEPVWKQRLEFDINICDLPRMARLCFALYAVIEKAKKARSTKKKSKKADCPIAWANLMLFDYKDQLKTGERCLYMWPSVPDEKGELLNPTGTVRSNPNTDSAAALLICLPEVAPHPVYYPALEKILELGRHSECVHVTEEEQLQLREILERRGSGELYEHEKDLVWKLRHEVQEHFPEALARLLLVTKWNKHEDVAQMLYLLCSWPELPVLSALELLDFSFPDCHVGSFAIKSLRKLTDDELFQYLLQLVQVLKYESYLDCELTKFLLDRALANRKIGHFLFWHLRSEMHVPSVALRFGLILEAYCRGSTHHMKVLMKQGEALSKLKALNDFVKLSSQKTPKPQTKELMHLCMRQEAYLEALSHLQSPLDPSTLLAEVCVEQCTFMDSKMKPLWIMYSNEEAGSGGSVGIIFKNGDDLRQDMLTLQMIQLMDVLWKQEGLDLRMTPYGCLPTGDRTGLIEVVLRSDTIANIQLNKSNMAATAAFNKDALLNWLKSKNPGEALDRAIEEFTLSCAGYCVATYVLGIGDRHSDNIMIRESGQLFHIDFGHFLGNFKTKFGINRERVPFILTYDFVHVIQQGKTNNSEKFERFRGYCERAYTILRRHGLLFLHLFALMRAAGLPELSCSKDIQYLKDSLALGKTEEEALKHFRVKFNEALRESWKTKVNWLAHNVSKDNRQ

[2] = Antiproliferative activity against Balb/c mouse splenic B cells preincubated for 30 mins followed by LPS or F(ab')2 donkey anti-mouse IgM and recombinant mouse IL4 stimulation measured after 72 hrs by Alamar Blue reduction assay; assay type: functional, cell-based
[3] = molecular target: Phosphatidylinositol 4,5-bisphosphate 3-kinase catalytic subunit gamma isoform (Homo sapiens, UniProt P48736); test: Inhibition of recombinant human C-terminal His6-tagged p110gamma expressed in insect cells using phosphatidylinositol as substrate in presence of gamma-32P-ATP after 5 mins by thin layer chromatographic method
Chain of Phosphatidylinositol 4,5-bisphosphate 3-kinase catalytic subunit gamma isoform (P48736 whole entry, canonical isoform): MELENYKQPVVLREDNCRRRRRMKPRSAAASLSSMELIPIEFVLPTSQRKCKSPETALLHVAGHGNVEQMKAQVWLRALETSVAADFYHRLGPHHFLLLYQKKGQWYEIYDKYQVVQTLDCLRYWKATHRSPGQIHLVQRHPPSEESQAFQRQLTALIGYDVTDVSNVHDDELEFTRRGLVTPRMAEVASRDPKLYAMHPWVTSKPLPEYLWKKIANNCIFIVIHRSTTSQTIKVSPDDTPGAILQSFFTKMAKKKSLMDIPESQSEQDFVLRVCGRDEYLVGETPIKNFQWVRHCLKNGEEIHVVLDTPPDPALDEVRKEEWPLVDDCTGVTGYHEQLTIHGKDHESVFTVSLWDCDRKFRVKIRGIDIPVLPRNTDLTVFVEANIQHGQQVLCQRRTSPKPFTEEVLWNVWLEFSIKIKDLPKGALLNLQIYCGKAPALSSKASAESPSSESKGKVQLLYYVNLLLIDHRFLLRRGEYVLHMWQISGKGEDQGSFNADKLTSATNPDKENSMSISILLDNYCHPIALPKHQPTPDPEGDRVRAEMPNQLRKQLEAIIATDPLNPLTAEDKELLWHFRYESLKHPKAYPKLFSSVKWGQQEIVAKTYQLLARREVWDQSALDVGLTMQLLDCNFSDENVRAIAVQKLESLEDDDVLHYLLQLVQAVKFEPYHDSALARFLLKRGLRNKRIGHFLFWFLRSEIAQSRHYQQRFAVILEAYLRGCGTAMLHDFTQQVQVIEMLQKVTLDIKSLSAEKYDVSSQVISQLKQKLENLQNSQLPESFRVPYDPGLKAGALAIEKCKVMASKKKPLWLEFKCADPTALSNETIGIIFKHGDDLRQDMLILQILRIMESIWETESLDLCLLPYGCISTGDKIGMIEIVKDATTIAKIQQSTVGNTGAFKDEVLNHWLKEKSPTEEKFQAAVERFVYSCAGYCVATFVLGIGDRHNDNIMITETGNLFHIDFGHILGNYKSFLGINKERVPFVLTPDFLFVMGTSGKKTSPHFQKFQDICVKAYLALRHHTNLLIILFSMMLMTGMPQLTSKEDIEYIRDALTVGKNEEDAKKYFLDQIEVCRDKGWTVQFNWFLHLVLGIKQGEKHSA

[4] = molecular target: PI3K p110 beta/p85 alpha (Homo sapiens, UniProt P42338); test: Inhibition of N-terminal His6-tagged recombinant full-length human p110beta/untagged recombinant full length p85alpha expressed in baculovirus infected Sf21 cells using phosphatidylinositol as substrate in presence of gamma-32P-ATP after 5 mins by thin layer chromatographic method
Chain of PI3K p110 beta/p85 alpha (P27986 whole entry): as the sequence (P27986 whole entry) above
Chain of PI3K p110 beta/p85 alpha (P42338 whole entry): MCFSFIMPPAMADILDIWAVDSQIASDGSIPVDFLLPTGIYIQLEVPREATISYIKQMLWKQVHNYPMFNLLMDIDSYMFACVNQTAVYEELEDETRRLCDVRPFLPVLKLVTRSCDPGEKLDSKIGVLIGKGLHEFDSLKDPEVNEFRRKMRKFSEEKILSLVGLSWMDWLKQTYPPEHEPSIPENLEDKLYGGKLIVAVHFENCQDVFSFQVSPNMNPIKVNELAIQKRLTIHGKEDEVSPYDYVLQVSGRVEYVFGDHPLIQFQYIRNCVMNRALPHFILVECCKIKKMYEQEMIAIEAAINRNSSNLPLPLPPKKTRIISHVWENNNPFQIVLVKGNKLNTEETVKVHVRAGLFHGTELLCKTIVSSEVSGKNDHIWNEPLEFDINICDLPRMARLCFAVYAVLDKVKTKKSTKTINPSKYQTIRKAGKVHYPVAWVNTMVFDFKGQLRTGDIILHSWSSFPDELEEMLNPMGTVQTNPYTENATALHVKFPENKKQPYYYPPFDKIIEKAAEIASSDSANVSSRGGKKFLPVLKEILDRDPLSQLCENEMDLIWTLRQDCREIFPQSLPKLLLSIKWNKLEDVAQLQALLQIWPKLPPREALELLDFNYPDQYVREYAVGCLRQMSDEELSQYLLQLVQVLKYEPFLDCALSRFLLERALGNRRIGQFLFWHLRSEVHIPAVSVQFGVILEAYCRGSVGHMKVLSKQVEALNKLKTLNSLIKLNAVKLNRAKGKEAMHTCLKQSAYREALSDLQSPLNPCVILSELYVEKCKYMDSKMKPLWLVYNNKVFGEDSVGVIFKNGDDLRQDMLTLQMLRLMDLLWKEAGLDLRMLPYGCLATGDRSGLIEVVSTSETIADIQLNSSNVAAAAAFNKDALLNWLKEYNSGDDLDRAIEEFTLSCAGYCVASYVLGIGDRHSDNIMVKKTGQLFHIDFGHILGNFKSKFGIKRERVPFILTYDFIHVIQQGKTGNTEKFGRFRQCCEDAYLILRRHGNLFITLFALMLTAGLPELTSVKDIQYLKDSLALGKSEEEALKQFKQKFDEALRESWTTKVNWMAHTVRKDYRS

[5] = molecular target: PI3-kinase p110-alpha/p85-alpha (Homo sapiens, UniProt P42336); test: Inhibition of N-terminal His6-tagged recombinant full-length human p110alpha/untagged recombinant full length human p85alpha expressed in baculovirus infected Sf21 cells using phosphatidylinositol as substrate in presence of gamma-32P-ATP after 5 mins by thin layer chromatographic method
Chain of PI3-kinase p110-alpha/p85-alpha (P27986 whole entry): as the sequence (P27986 whole entry) above
Chain of PI3-kinase p110-alpha/p85-alpha (P42336 whole entry): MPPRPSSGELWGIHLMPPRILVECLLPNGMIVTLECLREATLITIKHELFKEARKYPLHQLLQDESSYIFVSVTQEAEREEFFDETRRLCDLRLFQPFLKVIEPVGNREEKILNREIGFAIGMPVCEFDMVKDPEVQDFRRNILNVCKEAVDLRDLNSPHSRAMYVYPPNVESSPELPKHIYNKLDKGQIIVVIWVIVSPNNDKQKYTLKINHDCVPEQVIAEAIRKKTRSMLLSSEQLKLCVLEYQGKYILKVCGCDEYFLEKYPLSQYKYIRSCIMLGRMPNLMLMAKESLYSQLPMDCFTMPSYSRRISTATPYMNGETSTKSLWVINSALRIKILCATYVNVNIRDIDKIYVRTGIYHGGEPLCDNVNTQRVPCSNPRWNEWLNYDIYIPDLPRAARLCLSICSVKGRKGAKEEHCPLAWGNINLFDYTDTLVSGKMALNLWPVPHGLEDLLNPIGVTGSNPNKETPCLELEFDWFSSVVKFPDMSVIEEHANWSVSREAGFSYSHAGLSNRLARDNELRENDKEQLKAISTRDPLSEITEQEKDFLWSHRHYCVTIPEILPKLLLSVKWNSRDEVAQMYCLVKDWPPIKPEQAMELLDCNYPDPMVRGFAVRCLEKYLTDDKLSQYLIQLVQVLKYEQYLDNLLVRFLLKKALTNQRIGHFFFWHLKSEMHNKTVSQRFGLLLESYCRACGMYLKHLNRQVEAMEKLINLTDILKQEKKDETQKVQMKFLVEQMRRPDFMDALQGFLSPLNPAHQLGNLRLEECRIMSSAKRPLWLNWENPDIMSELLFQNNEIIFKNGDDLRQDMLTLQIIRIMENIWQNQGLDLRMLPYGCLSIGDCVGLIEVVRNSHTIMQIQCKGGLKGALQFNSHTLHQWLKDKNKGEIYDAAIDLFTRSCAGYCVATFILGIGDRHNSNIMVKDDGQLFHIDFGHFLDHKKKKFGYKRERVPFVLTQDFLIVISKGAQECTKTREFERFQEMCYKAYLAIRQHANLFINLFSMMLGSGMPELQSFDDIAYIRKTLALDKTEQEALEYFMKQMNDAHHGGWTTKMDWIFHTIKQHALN

Row | Compound | IC50 [1] [nM] | EC50 [2] [nM] | IC50 [3] [nM] | IC50 [4] [nM] | IC50 [5] [nM]
1 | CC(=O)Nc1nc2ccc(-c3nn(Cc4cc5cccc(C)c5c(=O)n4-c4ccccc4C)c4ncnc(N)c34)cc2[nH]1 | < 100 | < 100 | < 100 | – | –
2 | CC(=O)Nc1nc2ccc(-c3nn(Cc4cc5cccc(C)c5c(=O)n4-c4ccccc4C)c4ncnc(N)c34)cc2o1 | < 100 | – | < 100 | – | –
3 | Cc1cccc2cc(Cn3nc(CF)c4c(N)ncnc43)n(-c3ccccc3)c(=O)c12 | < 100 | < 100 | < 100 | – | –
4 | Cc1cccnc1-n1c(Cn2nc(-c3ccc4oc(N)nc4c3)c3c(N)ncnc32)cc2cccc(C)c2c1=O | < 100 | – | < 100 | – | –
5 | Cc1cccc2cc([C@H](C)Nc3nc(N)ncc3C(F)(F)F)n(-c3ccccc3)c(=O)c12 | < 100 | – | < 100 | – | –
6 | Cc1cccc2cc(Cn3cnc4c(N)ncnc43)n(-c3ccccc3F)c(=O)c12 | < 10000 | < 10000 | > 10000 | – | –
7 | Cc1cccnc1-n1c(Cn2nc(-c3cccc(O)c3)c3c(N)ncnc32)cc2ccccc2c1=O | < 1000 | – | < 10000 | – | –
8 | Cc1ccccc1-n1c(Cn2nc(-c3ccc4nc(N)oc4c3)c3c(N)ncnc32)cc2cccc(C)c2c1=O | < 100 | < 100 | < 100 | – | –
9 | Cc1cccc2cc([C@H](C)Nc3ncnc4[nH]cnc34)n(-c3cccc(F)c3)c(=O)c12 | – | < 100 | < 100 | – | –
10 | Cc1cccc2cc(Cn3nc(-c4ccc5oc(N)nc5c4)c4c(N)ncnc43)n(-c3ccccc3)c(=O)c12 | < 100 | < 100 | < 100 | – | –
11 | Cc1cccc2cc([C@H](C)Nc3nc(Cl)nc4[nH]cnc34)n(-c3ccccc3)c(=O)c12 | < 100 | < 100 | < 100 | – | –
12 | Cc1ccccc1-n1c(Cn2nc(-c3nn[nH]n3)c3c(N)ncnc32)cc2cccc(C)c2c1=O | < 100 | < 10000 | < 100 | – | –
13 | Cc1ccccc1-n1c(Cn2nc(CF)c3c(N)ncnc32)cc2cccc(C)c2c1=O | < 100 | < 100 | < 100 | – | –
14 | Cc1cccc2cc(C(C)Nc3ncnc4[nH]cnc34)n(C3CCCC3)c(=O)c12 (centres undefined) | < 100 | < 100 | < 100 | – | –
15 | Cc1cccc2cc(Cn3nc(-c4ccc5sc(N)nc5c4)c4c(N)ncnc43)n(-c3ccccc3)c(=O)c12 | < 100 | < 100 | < 100 | – | –
16 | Cc1cccc2cc(Cn3nc(-c4ccc5nc(N)oc5c4)c4c(N)ncnc43)n(-c3ccccc3)c(=O)c12 | – | < 10000 | 100 to 1000 | – | –
17 | Cc1cccc2cc([C@H](C)Nc3nc(N)nc4[nH]cnc34)n(-c3ccccc3)c(=O)c12 | < 100 | – | < 100 | – | –
18 | Cc1ccccc1-n1c(Cn2nc(-c3ccc(F)c(O)c3)c3c(N)ncnc32)cc2ccccc2c1=O | < 100 | < 100 | – | > 10000 | > 10000
19 | CC(=O)Nc1nc2ccc(-c3nn(Cc4cc5cccc(C)c5c(=O)n4-c4ccccc4)c4ncnc(N)c34)cc2[nH]1 | – | – | < 100 | – | –
20 | Cc1cccc2cc(Cn3nc(-c4cc(O)cc(F)c4)c4c(N)ncnc43)n(-c3ccccc3C(C)C)c(=O)c12 | < 100 | < 100 | – | < 1000 | < 1000
21 | Cc1cccc2cc(Cn3nc(-c4cc(O)cc(F)c4)c4c(N)ncnc43)n(-c3ccccc3F)c(=O)c12 | < 100 | < 100 | – | < 10000 | < 10000
22 | COc1ccc(-c2nn(Cc3cc4cccc(C)c4c(=O)n3-c3ccccc3C)c3ncnc(N)c23)cc1OC | < 1000 | < 100 | – | > 10000 | > 10000

Row | Compound | IC50 [1] [nM] | EC50 [2] [nM] | IC50 [3] [nM] | IC50 [4] [nM] | IC50 [5] [nM]
23 | Cc1cccc2cc(Cn3nc(-c4cc(O)cc(F)c4)c4c(N)ncnc43)n(-c3ccccc3)c(=O)c12 | < 100 | < 100 | – | < 10000 | < 1000
24 | CCn1c(Cn2nc(-c3ccc4nc(NC(C)=O)sc4c3)c3c(N)ncnc32)cc2cccc(C)c2c1=O | < 100 | < 100 | – | < 1000 | < 100000
25 | Cc1cccc2cc(Cn3nc(-c4cc(O)cc(F)c4)c4c(N)ncnc43)n(-c3ccccc3Cl)c(=O)c12 | < 100 | < 100 | – | < 1000 | < 10000
26 | CCc1ccccc1-n1c(Cn2nc(-c3cn[nH]c3)c3c(N)ncnc32)cc2cccc(C)c2c1=O | < 100 | < 100 | – | < 10000 | < 10000
27 | Cc1cccc2cc([C@H](C)Nc3ncnc4[nH]cnc34)n(C3CCC3)c(=O)c12 | – | < 100 | < 100 | – | –
28 | Cc1cccc2cc(Cn3nc(C#C[C@@H](C)O)c4c(N)ncnc43)n(-c3ccccc3C(C)C)c(=O)c12 | < 100 | < 100 | – | < 10000 | > 10000
29 | Cc1cccc2cc(Cn3nc(-c4ccc(F)c(O)c4)c4c(N)ncnc43)n(C(C)C)c(=O)c12 | < 100 | < 100 | – | < 10000 | > 10000
30 | Cc1cccc2cc(Cn3nc(-c4cccc(O)c4)c4c(N)ncnc43)n(C3CC3)c(=O)c12 | < 100 | < 100 | – | < 1000 | < 1000
31 | Cc1ccccc1-n1c(C(C)Nc2ncnc3[nH]cnc23)cc2cccc(C)c2c1=O (centres undefined) | < 100 | < 100 | – | < 10000 | > 10000
32 | Cc1cccc2cc(Cn3nc(I)c4c(N)ncnc43)n(C3CCCCC3)c(=O)c12 | < 1000 | < 10000 | – | > 10000 | > 10000
33 | Cc1cccc2cc(Cn3nc(-c4ccc(O)c(Cl)c4)c4c(N)ncnc43)n(-c3ccccc3F)c(=O)c12 | < 1000 | < 10000 | – | > 10000 | > 10000
34 | Cc1cccc2cc([C@H](C)Nc3ncnc4[nH]nc(Cl)c34)n(-c3ccccc3)c(=O)c12 | < 100 | – | < 100 | – | –
35 | CC(=O)Nc1nc2ccc(-c3nn(Cc4cc5cccc(C)c5c(=O)n4C)c4ncnc(N)c34)cc2s1 | < 100 | < 100 | – | < 1000 | < 100000
36 | Cc1cccc2cc(Cn3nc(-c4ccc(O)c(F)c4)c4c(N)ncnc43)n(-c3ccccc3F)c(=O)c12 | < 1000 | < 1000 | – | > 10000 | > 10000
37 | Cc1cccc2cc([C@H](C)Nc3ncnc4[nH]cnc34)n(C(C)C)c(=O)c12 | – | < 100 | < 100 | – | –
38 | Cc1cccc2cc(Cn3nc(-c4cccc(O)c4)c4c(N)ncnc43)n(-c3ccccc3Cl)c(=O)c12 | < 100 | < 100 | – | < 10000 | > 10000
39 | Cc1ccccc1-n1c(Cn2nc(-c3ccc4nc(N)ncc4c3)c3c(N)ncnc32)cc2cccc(C)c2c1=O | < 100 | < 100 | – | < 1000 | < 100000
40 | Cc1cccc2cc(Cn3nc(-c4cc(O)cc(F)c4)c4c(N)ncnc43)n(-c3ccccc3O)c(=O)c12 | < 100 | < 100 | – | < 1000 | < 10000
41 | CC(=O)Nc1nc2ccc(-c3nn(Cc4cc5cccc(Cl)c5c(=O)n4C(C)C)c4ncnc(N)c34)cc2s1 | < 100 | < 100 | – | < 100 | < 100000
42 | Cc1ccccc1-n1c(Cn2nc(-c3ccc(F)c(O)c3)c3c(N)ncnc32)cc2cccc(C)c2c1=O | < 100 | < 100 | – | < 10000 | > 10000
43 | Cc1ccccc1-n1c(Cn2nc(-c3cccc(O)c3)c3c(N)ncnc32)cc2cccc(C)c2c1=O | < 100 | < 100 | – | < 10000 | > 10000
